Reference: ChEMBL document CHEMBL1201862, “PubChem BioAssay data set” (2004)
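Values below derive from 48-hour exposures of cells grown in 96-well plates, with endpoints linearly interpolated between the two concentrations bracketing the appropriate inhibition level. At the GI50, growth is halved.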 Active and inactive are the calls of the source. No stated cut-off is given here; in the data, active = GI50 up to about 1.1 µM and inactive = higher.

Assays:
Assay in all cases: NCI anticancer screen, dose series, 48 h
UACC-257 = tested on: UACC-257
SNB-75 = tested on: SNB-75
MOLT-4 = tested on: MOLT-4
U-251 = tested on: U-251
OVCAR-8 = tested on: OVCAR-8
OVCAR-5 = tested on: OVCAR-5
M14 = tested on: M14
NCI-H23 = tested on: NCI-H23
A498 = tested on: A498
HOP-92 = tested on: HOP-92
OVCAR-4 = tested on: OVCAR-4
SK-MEL-28 = tested on: SK-MEL-28
SF-539 = tested on: SF-539
786-0 = tested on: 786-0
HL-60 = tested on: HL-60
Malme-3M = tested on: Malme-3M
LOX IMVI = tested on: LOX IMVI
CAKI-1 = tested on: CAKI-1
SR = tested on: SR

Measured: GI50

Oc1cc(/C=C/c2ccccc2)nc2cc3c(cc12)OCO3
inactive: UACC-257 22.1 µM | SNB-75 6.93 µM | MOLT-4 2.71 µM | U-251 2.52 µM | OVCAR-8 5.53 µM | OVCAR-5 3.54 µM | M14 5.25 µM | NCI-H23 3.26 µM | A498 4.2 µM | HOP-92 2.08 µM | OVCAR-4 14.7 µM | SK-MEL-28 8.65 µM | SF-539 2.08 µM | 786-0 3.32 µM

c1ccc(SC(CCCCOC2CCCCO2)Sc2ccccc2)cc1 (stereo not given)
inactive: UACC-257 63.8 µM | SNB-75 49.8 µM | MOLT-4 23.3 µM | U-251 > 100 µM | OVCAR-8 87.5 µM | OVCAR-5 > 100 µM | M14 > 100 µM | NCI-H23 40.8 µM | HL-60 20.4 µM | Malme-3M > 100 µM | A498 88.7 µM | HOP-92 11.8 µM | LOX IMVI 65.5 µM | CAKI-1 92.7 µM | OVCAR-4 55.6 µM | SK-MEL-28 64.3 µM | SF-539 > 100 µM | 786-0 > 100 µM

Cc1cc2c(C)n(Cc3ccccc3Cl)nc2c(C(=O)O)c1C
inactive: SR > 100 µM | UACC-257 > 100 µM | SNB-75 > 100 µM | MOLT-4 > 100 µM | U-251 > 100 µM | OVCAR-8 > 100 µM | OVCAR-5 > 100 µM | NCI-H23 > 100 µM | HL-60 > 100 µM | Malme-3M > 100 µM | HOP-92 > 100 µM | LOX IMVI > 100 µM | SK-MEL-28 > 100 µM | SF-539 > 100 µM | 786-0 > 100 µM

O=C(NC(=O)c1cn(CCN2CCN(C(=O)NCCCCCCNC(=O)N3CCN(CCn4cc(C(=O)NC(=O)OCc5ccccc5)c(=O)[nH]c4=O)CC3)CC2)c(=O)[nH]c1=O)OCc1ccccc1
inactive: UACC-257 > 100 µM | SNB-75 60.8 µM | MOLT-4 > 100 µM | U-251 > 100 µM | OVCAR-8 > 100 µM | OVCAR-5 > 100 µM | M14 > 100 µM | NCI-H23 > 100 µM | HL-60 > 100 µM | Malme-3M > 100 µM | HOP-92 > 100 µM | LOX IMVI > 100 µM | CAKI-1 > 100 µM | OVCAR-4 > 100 µM | SK-MEL-28 > 100 µM | SF-539 > 100 µM | 786-0 > 100 µM

COc1ccc2c3c([nH]c2c1[N+](=O)[O-])C(C)N(Cc1ccc([N+](=O)[O-])cc1)CC3 (stereo not given)
inactive: SR 5.5 µM | UACC-257 12.9 µM | MOLT-4 2.99 µM | U-251 15.7 µM | OVCAR-8 16.2 µM | OVCAR-5 31.6 µM | M14 8.43 µM | NCI-H23 6.7 µM | HL-60 3.22 µM | A498 14.8 µM | LOX IMVI 4.74 µM | CAKI-1 3.89 µM | OVCAR-4 2.16 µM | SK-MEL-28 11.9 µM | SF-539 > 100 µM | 786-0 > 100 µM

CCOC(=O)NC(=O)c1cn(CCCCCCCCCCC(=O)N2CCN(CCn3cc(C(=O)NC(=O)OCC)c(=O)[nH]c3=O)CC2)c(=O)[nH]c1=O
inactive: UACC-257 > 100 µM | SNB-75 > 100 µM | MOLT-4 > 100 µM | U-251 > 100 µM | OVCAR-8 > 100 µM | M14 > 100 µM | NCI-H23 > 100 µM | HL-60 > 100 µM | A498 > 100 µM | HOP-92 > 100 µM | LOX IMVI > 100 µM | CAKI-1 > 100 µM | OVCAR-4 > 100 µM | SK-MEL-28 > 100 µM | SF-539 > 100 µM | 786-0 > 100 µM

C/C(=C1/CCC/C(=C(/C)c2ccccc2)C1=O)c1ccccc1
inactive: SR 14.6 µM | UACC-257 25 µM | SNB-75 63.1 µM | MOLT-4 21.5 µM | U-251 25.3 µM | OVCAR-8 41.7 µM | OVCAR-5 27.2 µM | M14 33.3 µM | NCI-H23 27.5 µM | HL-60 10.7 µM | Malme-3M 14.9 µM | HOP-92 38.8 µM | LOX IMVI 28.8 µM | OVCAR-4 46.3 µM | SK-MEL-28 36.3 µM | SF-539 62.4 µM | 786-0 44.4 µM

CC(C)N1CCC2(CC1)NNc1ncccc1-n1cccc12
inactive: UACC-257 > 100 µM | SNB-75 > 100 µM | MOLT-4 > 100 µM | U-251 > 100 µM | OVCAR-8 > 100 µM | OVCAR-5 > 100 µM | M14 > 100 µM | NCI-H23 > 100 µM | HL-60 > 100 µM | Malme-3M > 100 µM | LOX IMVI > 100 µM | CAKI-1 > 100 µM | OVCAR-4 > 100 µM | SK-MEL-28 > 100 µM | SF-539 > 100 µM | 786-0 > 100 µM

CC(C)(C)OC(=O)N1CC(C)(C)N2C(=O)C3(CCCO3)C12 (stereo not given)
inactive: UACC-257 > 100 µM | SNB-75 > 100 µM | MOLT-4 > 100 µM | U-251 45.3 µM | OVCAR-8 > 100 µM | OVCAR-5 > 100 µM | M14 > 100 µM | NCI-H23 > 100 µM | HL-60 > 100 µM | Malme-3M > 100 µM | A498 > 100 µM | HOP-92 > 100 µM | LOX IMVI > 100 µM | CAKI-1 > 100 µM | OVCAR-4 > 100 µM | SK-MEL-28 > 100 µM | SF-539 > 100 µM | 786-0 > 100 µM

O=C1c2ccccc2C(=O)N1C/C=C/CO
inactive: SR > 100 µM | UACC-257 > 100 µM | SNB-75 > 100 µM | MOLT-4 > 100 µM | U-251 > 100 µM | OVCAR-8 > 100 µM | M14 > 100 µM | HL-60 > 100 µM | Malme-3M > 100 µM | A498 > 100 µM | CAKI-1 > 100 µM | OVCAR-4 > 100 µM | SK-MEL-28 > 100 µM | SF-539 > 100 µM | 786-0 > 100 µM

CCOC(=O)CNC(=O)OCc1ccccc1
inactive: UACC-257 > 100 µM | SNB-75 > 100 µM | MOLT-4 > 100 µM | U-251 > 100 µM | OVCAR-8 > 100 µM | OVCAR-5 > 100 µM | M14 > 100 µM | NCI-H23 > 100 µM | HL-60 > 100 µM | Malme-3M > 100 µM | A498 > 100 µM | HOP-92 > 100 µM | LOX IMVI > 100 µM | CAKI-1 > 100 µM | SK-MEL-28 > 100 µM | SF-539 > 100 µM | 786-0 > 100 µM

Cc1ccccc1-c1cc(=O)c2cc(C)c(C)c(C(=O)O)c2o1
inactive: SR > 100 µM | UACC-257 > 100 µM | SNB-75 > 100 µM | MOLT-4 > 100 µM | U-251 > 100 µM | OVCAR-8 > 100 µM | OVCAR-5 > 100 µM | M14 > 100 µM | NCI-H23 > 100 µM | HL-60 > 100 µM | Malme-3M > 100 µM | HOP-92 > 100 µM | LOX IMVI > 100 µM | CAKI-1 > 100 µM | OVCAR-4 > 100 µM | SK-MEL-28 > 100 µM | SF-539 > 100 µM | 786-0 > 100 µM

C1=CC=C2NCCC/N=C3/C=CC=CC=C3NCCC/N=C\2C=C1
inactive: SNB-75 > 100 µM | MOLT-4 > 100 µM | U-251 > 100 µM | OVCAR-8 > 100 µM | OVCAR-5 > 100 µM | M14 > 100 µM | HL-60 > 100 µM | A498 > 100 µM | HOP-92 > 100 µM | LOX IMVI > 100 µM | OVCAR-4 > 100 µM | SK-MEL-28 > 100 µM | SF-539 > 100 µM | 786-0 > 100 µM

Cc1cc2c(=O)cc(-c3ccc(Cl)cc3Cl)oc2c(C(=O)O)c1C
inactive: UACC-257 > 100 µM | SNB-75 > 100 µM | MOLT-4 > 100 µM | U-251 > 100 µM | OVCAR-8 > 100 µM | OVCAR-5 > 100 µM | M14 > 100 µM | NCI-H23 > 100 µM | Malme-3M > 100 µM | LOX IMVI > 100 µM | CAKI-1 > 100 µM | OVCAR-4 > 100 µM | SK-MEL-28 > 100 µM | SF-539 > 100 µM | 786-0 > 100 µM

O=C1CC2Sc3ccccc3N=C2N1c1ccc(Cl)cc1Cl (stereo not given)
inactive: UACC-257 > 100 µM | SNB-75 99.1 µM | MOLT-4 23.3 µM | U-251 32.2 µM | OVCAR-8 59.3 µM | OVCAR-5 > 100 µM | M14 71 µM | NCI-H23 87.7 µM | HL-60 18.8 µM | Malme-3M 64.7 µM | HOP-92 30.3 µM | LOX IMVI 40.7 µM | OVCAR-4 > 100 µM | SK-MEL-28 93.3 µM | 786-0 30.3 µM

CC(=O)Nc1ccc(C(=O)N2N=C(C)/C(=C/c3cccc([N+](=O)[O-])c3)C2=O)cc1
inactive: SR > 100 µM | UACC-257 > 100 µM | SNB-75 > 100 µM | MOLT-4 > 100 µM | OVCAR-8 > 100 µM | OVCAR-5 > 100 µM | M14 > 100 µM | NCI-H23 > 100 µM | HL-60 > 100 µM | Malme-3M > 100 µM | LOX IMVI > 100 µM | CAKI-1 > 100 µM | OVCAR-4 > 100 µM | SK-MEL-28 > 100 µM | SF-539 > 100 µM | 786-0 > 100 µM

O=C(O)CCCNS(=O)(=O)c1ccccc1
inactive: UACC-257 > 100 µM | SNB-75 > 100 µM | MOLT-4 > 100 µM | U-251 > 100 µM | OVCAR-8 > 100 µM | OVCAR-5 > 100 µM | M14 > 100 µM | NCI-H23 > 100 µM | HL-60 > 100 µM | Malme-3M > 100 µM | A498 > 100 µM | HOP-92 > 100 µM | LOX IMVI > 100 µM | CAKI-1 > 100 µM | OVCAR-4 > 100 µM | SK-MEL-28 > 100 µM | SF-539 > 100 µM | 786-0 > 100 µM
